Experimental data: patent publication US10947242B2, “[1,2,4]triazolo[1,5and#8208;A]pyrimidine compounds as PDE2 inhibitors” (Janssen Pharmaceutica NV, priority 2016, dated 2021)
Read-outs that look alike come from different tables or passages of the source.

Legend:
Format in all cases: biochemical
[1] = target: T1, Human recombinant PDE3A (hPDE3A) (Homo sapiens, UniProt Q14432); test: In vitro assay PDE3A (SPA, 3H-cAMP hydrolysis); details: for IC50: hPDE3B pIC50, read-out: pIC50 (converted); for Emax: read-out: hPDE3B Emax, read-out: Emax;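 on all read-outs here: the method names PDE3A and the table heading PDE3B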
T1 construct: purchased Scottish Biomedical; host or cells: Sf9 insect cells
Procedure: Human recombinant PDE3A (hPDE3A) was supplied as a partially purified insect cell lysate by Scottish Biomedical, it was cloned from human brain and expressed in Sf9 cells. Tested compounds were dissolved and diluted in 100% DMSO to a concentration 100 fold of the final concentration in the assay. Compound dilutions (0.4 μl) were added in 384 well plates to 20 μl of incubation buffer (50 mM Tris pH 7.8, 8.3 mM MgCl2, 1.7 mM EGTA). 10 μl of hPDE3A enzyme in incubation buffer was added and the reaction was started by addition of 10 μl substrate to a final concentration of 0.4 μM cAMP and 2.4 μCi/ml [^3H]-cAMP. The reaction was incubated for 60 min at room temperature. […] After sedimentation of the beads during 30 min the radioactivity was measured in a Perkin Elmer Topcount scintillation counter and results were expressed as cpm. For blanc values the enzyme was omitted from the reaction and replaced by incubation buffer. Control values were obtained by addition of a final concentration of 1% DMSO instead of compound.

[2] = target: T2, Human recombinant PDE2A (hPDE2A) (Homo sapiens, UniProt O00408); test: In vitro assay PDE2A (SPA, 3H-cGMP hydrolysis); details: for Emax: read-out: hPDE2A Emax
T2 construct: His tag (inferred from metal chelate purification); made in house; host or cells: Sf9 insect cells (baculovirus)

[3] = target: T3, Human recombinant PDE10A (hPDE10A) (Homo sapiens, UniProt Q9Y233); test: In vitro assay PDE10A, human clone (SPA, 3H-cAMP hydrolysis)
T3 construct: His tag (inferred from metal chelate purification); made in house; host or cells: Sf9 insect cells (baculovirus)
Procedure: Rat recombinant PDE10A (rPDE10A2) was expressed in Sf9 cells using a recombinant rPDE10A baculovirus construct. […] Tested compounds were dissolved and diluted in 100% DMSO to a concentration 100 fold of the final concentration in the assay. Human recombinant PDE10A ([…]) was expressed in Sf9 cells using a recombinant hPDE10A baculovirus that was made and amplified in house. […] Compound dilutions (0.4 μl) were added in 384 well plates to 20 μl of incubation buffer (50 mM Tris pH 7.8, 8.3 mM MgCl2, 1.7 mM EGTA). 10 μl of rPDE10A or hPDE10A enzyme in incubation buffer was added and the reaction was started by addition of 10 μl substrate to a final concentration of 60 nM cAMP and 0.008 μCi ^3H-cAMP. The reaction was incubated for 60 minutes at room temperature. […] After sedimentation of the beads during 30 minutes the radioactivity was measured in a Perkin Elmer Topcount scintillation counter and results were expressed as cpm. For blanc values the enzyme was omitted from the reaction and replaced by incubation buffer. Control values were obtained by addition of a final concentration of 1% DMSO instead of compound.

[4] = human recombinant PDE2A, 10 μM cGMP substrate, read-out: hPDE2A pIC50 (converted)
[5] = read-out: hPDE2A pIC50 (converted)
[6] = human clone (h), default, read-out: hPDE10A2 Emax
[7] = human clone (h), default, read-out: hPDE10A2 pIC50 (converted)
[8] = human clone by default (no (r) mark), read-out: hPDE10A2 or rPDE10A2 Emax
[9] = human clone by default (no (r) mark), read-out: hPDE10A2 or rPDE10A2 pIC50 (converted)

T1 sequence (Q14432 whole entry): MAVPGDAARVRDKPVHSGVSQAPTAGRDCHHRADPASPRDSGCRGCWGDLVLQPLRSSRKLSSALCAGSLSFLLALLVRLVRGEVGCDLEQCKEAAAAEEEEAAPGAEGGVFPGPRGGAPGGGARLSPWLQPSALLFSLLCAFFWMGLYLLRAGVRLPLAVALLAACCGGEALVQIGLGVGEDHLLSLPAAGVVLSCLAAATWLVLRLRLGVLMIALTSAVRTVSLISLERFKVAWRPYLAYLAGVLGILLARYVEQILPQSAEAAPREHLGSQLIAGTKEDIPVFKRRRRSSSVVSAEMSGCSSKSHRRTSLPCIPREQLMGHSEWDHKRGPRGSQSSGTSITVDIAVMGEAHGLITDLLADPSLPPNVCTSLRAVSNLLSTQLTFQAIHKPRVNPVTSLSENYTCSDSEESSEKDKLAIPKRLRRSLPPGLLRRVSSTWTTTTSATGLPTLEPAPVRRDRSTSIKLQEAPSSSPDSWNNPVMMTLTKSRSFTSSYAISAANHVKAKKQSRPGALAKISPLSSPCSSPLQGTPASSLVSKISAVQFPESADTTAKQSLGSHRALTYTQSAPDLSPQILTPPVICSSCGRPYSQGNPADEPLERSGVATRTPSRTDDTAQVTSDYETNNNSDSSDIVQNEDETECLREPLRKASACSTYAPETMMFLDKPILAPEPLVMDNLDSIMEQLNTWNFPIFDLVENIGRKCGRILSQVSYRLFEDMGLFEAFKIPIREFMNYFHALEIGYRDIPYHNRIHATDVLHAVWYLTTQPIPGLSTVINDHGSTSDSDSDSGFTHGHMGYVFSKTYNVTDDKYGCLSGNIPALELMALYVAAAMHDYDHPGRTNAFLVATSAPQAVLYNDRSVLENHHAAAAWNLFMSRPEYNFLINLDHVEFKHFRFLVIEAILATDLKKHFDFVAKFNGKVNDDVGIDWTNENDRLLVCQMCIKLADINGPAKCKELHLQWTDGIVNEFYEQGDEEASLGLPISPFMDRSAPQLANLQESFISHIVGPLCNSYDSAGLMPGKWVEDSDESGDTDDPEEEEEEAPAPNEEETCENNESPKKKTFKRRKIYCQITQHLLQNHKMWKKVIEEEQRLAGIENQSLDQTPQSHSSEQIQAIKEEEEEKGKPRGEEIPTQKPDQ
T2 sequence (O00408 whole entry): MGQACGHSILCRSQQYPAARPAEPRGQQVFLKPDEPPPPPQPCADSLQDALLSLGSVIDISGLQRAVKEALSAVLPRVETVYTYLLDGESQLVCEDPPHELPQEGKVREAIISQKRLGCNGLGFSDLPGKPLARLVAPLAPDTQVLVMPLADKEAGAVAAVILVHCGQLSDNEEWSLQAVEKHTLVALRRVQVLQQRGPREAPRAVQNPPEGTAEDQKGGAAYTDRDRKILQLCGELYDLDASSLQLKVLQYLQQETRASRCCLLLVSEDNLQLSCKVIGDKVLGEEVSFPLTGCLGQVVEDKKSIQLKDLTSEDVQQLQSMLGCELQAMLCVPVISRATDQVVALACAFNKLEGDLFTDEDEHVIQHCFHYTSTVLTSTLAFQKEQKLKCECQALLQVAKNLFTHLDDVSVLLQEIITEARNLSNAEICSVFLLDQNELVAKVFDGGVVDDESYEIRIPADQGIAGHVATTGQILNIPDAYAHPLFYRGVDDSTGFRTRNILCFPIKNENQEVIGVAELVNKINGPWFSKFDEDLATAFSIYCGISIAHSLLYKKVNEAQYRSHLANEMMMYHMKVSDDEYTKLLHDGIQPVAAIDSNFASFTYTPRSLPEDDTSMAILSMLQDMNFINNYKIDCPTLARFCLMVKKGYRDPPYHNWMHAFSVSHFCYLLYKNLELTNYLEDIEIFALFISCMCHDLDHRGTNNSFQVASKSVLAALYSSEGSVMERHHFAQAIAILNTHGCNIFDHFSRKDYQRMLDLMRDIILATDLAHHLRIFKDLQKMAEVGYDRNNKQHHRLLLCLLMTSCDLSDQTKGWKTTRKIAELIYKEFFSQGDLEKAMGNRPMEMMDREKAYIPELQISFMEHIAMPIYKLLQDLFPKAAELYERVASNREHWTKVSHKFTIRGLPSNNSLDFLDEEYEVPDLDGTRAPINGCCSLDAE
T3 sequence (Q9Y233 267-1055): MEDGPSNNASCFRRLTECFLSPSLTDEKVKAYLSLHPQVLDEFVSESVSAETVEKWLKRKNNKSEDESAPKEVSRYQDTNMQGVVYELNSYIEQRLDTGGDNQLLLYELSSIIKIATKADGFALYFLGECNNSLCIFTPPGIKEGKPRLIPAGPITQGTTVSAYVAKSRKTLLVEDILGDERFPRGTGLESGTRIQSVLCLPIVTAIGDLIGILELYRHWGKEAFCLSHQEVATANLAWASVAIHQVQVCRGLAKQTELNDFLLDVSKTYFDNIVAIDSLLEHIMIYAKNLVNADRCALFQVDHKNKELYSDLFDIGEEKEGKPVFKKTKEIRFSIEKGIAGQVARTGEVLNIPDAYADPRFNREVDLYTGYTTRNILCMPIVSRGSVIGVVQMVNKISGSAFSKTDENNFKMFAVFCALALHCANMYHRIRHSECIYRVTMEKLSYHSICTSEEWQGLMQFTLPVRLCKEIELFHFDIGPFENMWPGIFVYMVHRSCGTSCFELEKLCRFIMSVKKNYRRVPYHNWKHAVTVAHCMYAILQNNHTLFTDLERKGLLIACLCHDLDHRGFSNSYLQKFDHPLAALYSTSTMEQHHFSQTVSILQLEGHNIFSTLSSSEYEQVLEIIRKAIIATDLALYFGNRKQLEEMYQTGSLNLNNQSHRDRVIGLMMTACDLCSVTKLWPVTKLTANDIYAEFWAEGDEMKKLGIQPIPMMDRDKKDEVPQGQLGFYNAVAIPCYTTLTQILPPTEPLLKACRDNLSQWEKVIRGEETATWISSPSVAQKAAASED

Structure (SMILES) | IC50 [1] | Emax [1] | IC50 [2, 4] | Emax ([2]; human recombinant PDE2A) | Emax [2] | IC50 [2, 5] | Emax [3, 6] | IC50 [3, 7] | Emax [3, 8] | IC50 [3, 9] | IC50 ([2]; hPDE2A pIC50) | IC50 ([2]; hPDE2A pIC50, human recombinant PDE2A, 10 μM cGMP substrate)
C[C@@H]1CCN(C(=O)c2cnn(C)c2)C[C@H]1c1cc(C(F)F)nc2ncnn12 [Compound 177] | > 10 µM | 21% | 9.55 nM | 99% | 99% | 9.55 nM | 93% | 457 nM | – | – | – | –
Cc1ccc2cc(C(=O)N3[C@H]4CC[C@H](c5cc(C(F)F)nc6ncnn56)[C@@H]3CC4)c(C)nc2c1 [Compound 298] | > 10 µM | 25% | – | – | 99% | 18.6 nM | – | – | 47% | > 10000 nM | – | –
C[C@@H]1CCN(C(=O)c2ccc(Cl)s2)C[C@H]1c1cc(C(F)F)nc2ncnn12 [Compound 180] | 5.13 µM | 66% | 5.01 nM | 100% | 100% | 5.01 nM | 97% | 174 nM | – | – | – | –
C[C@@H]1CCN(C(=O)c2cccc(N)n2)C[C@H]1c1cc(C(F)F)nc2ncnn12 [Compound 162] | > 10 µM | 26% | 74.1 nM | 97% | 97% | 74.1 nM | 72% | 4270 nM | – | – | – | –
Cc1cc([C@@H]2CN(C(=O)c3ccn(C)c3)CC[C@H]2C)n2ncnc2n1 [Compound 14] | 4.68 µM | 70% | 6.03 nM | 99% | 99% | 6.03 nM | 99% | 89.1 nM | – | – | – | –
C[C@@H]1CCN(C(=O)c2ccc(F)c(C3CC3)c2)C[C@H]1c1cc(C(F)F)nc2ncnn12 [Compound 135] | 2.63 µM | 81% | 3.31 nM | 100% | 100% | 3.31 nM | 97% | 191 nM | – | – | – | –
Cc1cc([C@@H]2CN(C(=O)c3ccnc(Cl)c3)CC[C@H]2C)n2ncnc2n1 [Compound 15] | 8.13 µM | 54% | – | – | 100% | – | 97% | 72.4 nM | – | – | 3.24 nM | 3.24 nM
C[C@@H]1CCN(C(=O)c2ccnn2C)C[C@H]1c1cc(C(F)F)nc2ncnn12 [Compound 57] | > 10 µM | 21% | 27.5 nM | 100% | 100% | 27.5 nM | 78% | 3160 nM | – | – | – | –
C[C@@H]1CCN(C(=O)c2ccc3cnccc3c2)C[C@H]1c1cc(C(F)F)nc2ncnn12 [Compound 326] | 0.257 µM | 97% | – | – | 100% | 2.14 nM | – | – | 99% | 60.3 nM | – | –
Cc1cc([C@H]2CN(C(=O)c3ccc4nccn4c3)CC[C@@H]2C)n2ncnc2n1 [Compound 216] | > 10 µM | 26% | 437 nM | 98% | 98% | 437 nM | 67% | 4470 nM | 67% | 4470 nM | – | –
COc1c(C(=O)N2CC[C@@H](C)[C@H](c3cc(C(F)F)nc4ncnn34)C2)cccc1C(F)(F)F [Compound 247] | 2.04 µM | 85% | – | – | 98% | 155 nM | 77% | 2880 nM | 77% | 2880 nM | – | –
Cc1cc2ccc(C(=O)N3CC[C@@H](C)[C@H](c4cc(C(F)F)nc5ncnn45)C3)cn2c1 [Compound 289] | 0.178 µM | 98% | – | – | 100% | 2.4 nM | – | – | 99% | 63.1 nM | – | –
COc1ccc2nc(C(=O)N3CC[C@@H](C)[C@H](c4cc(C(F)F)nc5ncnn45)C3)sc2c1 [Compound 171] | 1.15 µM | 93% | 11.7 nM | 99% | 99% | 11.7 nM | 97% | 355 nM | – | – | – | –
O=C(c1cccc2ccccc12)N1[C@H]2CC[C@H](c3cc(C(F)F)nc4ncnn34)[C@@H]1CC2 [Compound 320] | > 10 µM | 47% | – | – | 100% | 53.7 nM | – | – | 62% | 7080 nM | – | –
Cc1cnc(C(=O)N2[C@H]3CC[C@H](c4cc(C(F)F)nc5ncnn45)[C@@H]2CC3)cc1C [Compound 365] | > 10 µM | 24% | – | – | 99% | 63.1 nM | – | – | 33% | > 10000 nM | – | –
C/C(=C\c1ccc(F)cc1)C(=O)N1[C@H]2CC[C@H](c3cc(C(F)F)nc4ncnn34)[C@@H]1CC2 [Compound 370] | 1.45 µM | 87% | – | – | 100% | 33.9 nM | – | – | 94% | 661 nM | – | –
Cc1ccc(C(=O)N2[C@H]3CC[C@H](c4cc(C(F)F)nc5ncnn45)[C@@H]2CC3)o1 [Compound 354] | 9.77 µM | 45% | – | – | 100% | 89.1 nM | – | – | 70% | 4470 nM | – | –
C[C@@H]1CCN(C(=O)c2ccncc2F)C[C@H]1c1cc(C(F)F)nc2ncnn12 [Compound 155] | > 10 µM | 37% | 53.7 nM | 98% | 98% | 53.7 nM | 72% | 2950 nM | – | – | – | –
C[C@@H]1CCN(C(=O)c2cccc3ocnc23)C[C@H]1c1cc(C(F)F)nc2ncnn12 [Compound 183] | > 10 µM | 36% | 26.3 nM | 99% | 99% | 26.3 nM | 79% | 2290 nM | – | – | – | –
Cc1csc(C(=O)N2CCC[C@](C)(c3cc(C(F)F)nc4ncnn34)C2)c1 (single isomer, unassigned) [Compound 208] | > 10 µM | 30% | 589 nM | 62% | 62% | 589 nM | 4% | > 10000 nM | – | – | – | –
